From patent US9550732B2, “Salt of pyrrolidin-3-yl acetic acid derivative and crystals thereof” (Eisai R&D Management Co., Ltd., priority 2013, dated 2017)

Tested on: T cell transfer colitis model
Experiment: Amelioration of body weight loss in T cell transfer-induced colitis model
Assay type: in vivo
Settings: colitis-induced SCID mice injected with CD4-positive CD45RB-high cells; orally once a day from Day 16 to 31; body weight Day 19-31
Description: By using colitis-induced SCID mice in which CD4-positive, CD45RB-high cells isolated from BALB/c mice splenocytes were injected, the efficacy of the example compounds was evaluated by the body weight changes. The experiment was performed over 31 days. On Day 1, CD4-positive, CD45RB-high cells isolated from the spleen of BALB/c mice (5×10^5 cells/mouse) were intravenously administered to SCID mice. From Day 16 to 31, the example compound was orally administered to the SCID mice once a day, followed by measuring body weights of all animals on Day 19, 22, 24, 26, 29 and 31. The efficacy was evaluated by body weight changes on Day 19, 22, 24, 26, 29 or 31. The body weight change (%) was determined by the formula shown below, where [A] is the body weight on Day 16, and [B] is the body weight on each day of body weight measurement (Day 19, 22, 24, 26, 29 or 31). body weight change (%)=B/A×100 (2) Results The results are shown in FIG. 6. The abscissa in the figures indicates the number of days elapsed, where the day on which CD4-positive, CD45RB-high cells isolated from the spleen of BALB/c mice (5×10^5 cells/mouse) were intravenously administered to SCID mice is Day 0.

C[C@H]1CN(Cc2c(Cl)cccc2C(F)(F)F)C[C@@]1(CC(=O)O)C(=O)NC1CCN(CC2=CCCCC2)CC1 [compound (1), 2-[(3S,4R)-1-{[2-chloro-6-(trifluoromethyl)phenyl]methyl}-3-{[1-(cyclohex-1-en-1-ylmethyl)piperidin-4-yl]carbamoyl}-4-methylpyrrolidin-3-yl]acetic acid]
effect on body weight change (FIG. 6): weight reduction-suppressing effect
